{
  "source": "patent US20250064831A1",
  "about": "(Acerus Biopharma Inc., priority 2012, published 2025)",
  "origin": "cited, not measured here",
  "key": {"[1]": {"settings": "polyethylene glycol (200 mg/ml), high variations"}, "[2]": {"settings": "progesterone/cyclodextrin powder mixtures, nasal"}, "[3]": {"settings": "in vivo"}},
  "data": [
    {"smiles": "CC(=O)[C@H]1CC[C@H]2[C@@H]3CCC4=CC(=O)CC[C@]4(C)[C@H]3CC[C@]12C", "note": "[progesterone]", "values": [
      {"measurement": "duration of serum level", "setting": "[1]", "value": "at least 8 hours"},
      {"measurement": "serum level decrease", "setting": "[2]", "value": "≤ 20", "unit": "min"}
    ]},
    {"smiles": "CN(C)CC(=O)O[C@H]1CC[C@H]2[C@@H]3CCC4=CC(=O)CC[C@]4(C)[C@H]3CC[C@]12C", "note": "[testosterone 17β-N,N-dimethylglycinate]", "values": [
      {"measurement": "elimination half-lives", "setting": "[3]", "value": "about 55 min"}
    ]}
  ]
}
